Test results as given in patent US20250206722A1, “SMALL MOLECULE INHIBITORS OF TEA DOMAIN FAMILY MEMBERS” (The Scripps Research Institute, priority 2022, published 2025).

Assays:
NCI-H226 cells = test: NCI-H226 proliferation assay (in house); format: cell-based; conditions: Homo sapiens, 120 h, 5 days, Cell TiterGlo, 20-point 1:2 dilution from 20 μM
Method: NCI-H226 Proliferation Assay
NCI-H226 cells were obtained from American Type Culture Collection (ATCC, CRL-5826) and cultured in RPMI 1640 with L-glutamine (Corning, 10-040-CV) supplemented with 10% fetal bovine serum (Gibco, 10438-026) and 1% penicillin-streptomycin (Gibco, 15070063). Cells were trypsinized, resuspended in growth medium, and diluted to a concentrated of 10,000 cells/mL. 500 cells, 50 μL of cell suspension, per well were then plated in a white 384-well plate (Corning) and incubated at 37° C., 5% CO2. After 24 hours incubation, 100 nL of test compounds in DMSO, 20-point 1:2 dilution starting from 20 μM (final concentration) in triplicate, were transferred to each well using an Agilent Bravo instrument outfitted with a pintool head. Cells were incubated at 37° C., 5% CO2 for 5 days followed by the addition of 30 μL of Cell TiterGlo (Promega; diluted 1:6 in water) to each well and luminescence values recorded using an EnVision plate reader. […]

[1] = test system: transcriptional activity of TEADs; test: TEAD reporter assay (MCF7 TEAD-LUC reporter cells); format: cell-based; conditions: Homo sapiens, 24 hours, BrightGlo luminescence
Method: MCF7 TEAD-LUC reporter cells were obtained from BPS Bioscience, Inc. and cultured in DMEM medium (Corning, 10-013-CV) supplemented with 10% fetal bovine serum (Gibco, 10438-026), 1% penicillin-streptomycin (Gibco, 15070063), 1% non-essential amino acids (Gibco, 15070063), and 10 μg/mL insulin (Sigma, 10516). Cells were trypsinized, resuspended in growth medium, and diluted to a concentrated of 100,000 cells/mL. 5,000 cells, 50 μL of cell suspension, per well were then plated in a white 384-well plate (Corning) and incubated at 37° C., 5% CO2. After 24 hours incubation, 100 nL of test compounds in DMSO, 20-point 1:2 dilution starting from 20 μM (final concentration) in triplicate, were transferred to each well using an Agilent Bravo instrument outfitted with a pintool head. Cells were incubated at 37° C., 5% CO2 for 24 hours followed by the addition of 30 μL of BrightGlo (Promega; diluted 1:3 in water) to each well and luminescence values recorded using an EnVision plate reader.
The in vitro assay results of the compounds in the present invention were included in Table 1. The compounds described herein, inhibited the transcriptional activity of TEADs, as assessed by decreased luminance from a TEAD reporter cell line (MCF7 TEAD-LUC) in response to compound treatment.

| Structure (SMILES) | IC50 (NCI-H226 cells) [µM] | IC50 [1] [µM] |
| --- | --- | --- |
| C=CC(=O)N1CCN(c2ccccc2Nc2ccc(C(F)(F)F)cc2)CC1 [Example 162, 1-(4-(2-((4-(trifluoromethyl)phenyl)amino)phenyl)piperazin-1-yl)prop-2-en-1-one] | 0.192 | 0.0011 |
| C=CC(=O)N1CCN(c2nccnc2Nc2ccc(C(F)(F)F)nc2)C[C@@H]1C [Example 53, (S)-1-(2-methyl-4-(3-((6-(trifluoromethyl)pyridin-3-yl)amino)pyrazin-2-yl)piperazin-1-yl)prop-2-en-1-one] | 0.076 | 0.0036 |
| C=CC(=O)N1CCN(c2nccnc2N(C)c2ccc(C(F)(F)F)cn2)CC1 [Example 42, 1-(4-(3-(methyl(5-(trifluoromethyl)pyridin-2-yl)amino)pyrazin-2-yl)piperazin-1-yl)prop-2-en-1-one] | 0.166 | 0.017 |
| C=C(F)C(=O)N1CCC(c2ncc(C)nc2Oc2ccc(C(F)(F)F)nc2)CC1 [Example 117, 2-fluoro-1-(4-(5-methyl-3-((6-(trifluoromethyl)pyridin-3-yl)oxy)pyrazin-2-yl)piperidin-1-yl)prop-2-en-1-one] | 0.158 |  |
| C=C(F)C(=O)N1CCC(c2cccnc2Oc2cnc(C(F)(F)F)nc2)CC1 [Example 160, 2-fluoro-1-(4-(2-((2-(trifluoromethyl)pyrimidin-5-yl)oxy)pyridin-3-yl)piperidin-1-yl)prop-2-en-1-one] | 2.94 | 1.65 |
| C=CC(=O)N1CCN(c2nccnc2C(=O)c2ccc(C(F)(F)F)cc2)CC1 [Example 95, 1-(4-(3-(4-(trifluoromethyl)benzoyl)pyrazin-2-yl)piperazin-1-yl)prop-2-en-1-one] | 0.012 | 0.0013 |
| C=C(CN1CCC(c2nccnc2Oc2ccc(C(F)(F)F)nc2)CC1)C(=O)O [Example 82, 2-((4-(3-((6-(trifluoromethyl)pyridin-3-yl)oxy)pyrazin-2-yl)piperidin-1-yl)methyl)acrylic acid] | > 20 | > 20 |
| C=CC(=O)N1CCN(c2nccnc2Nc2ccc(C(F)(F)F)cc2)CC1CC(N)=O (stereo not shown) [Example 20, 2-(1-acryloyl-4-(3-((4-(trifluoromethyl)phenyl)amino)pyrazin-2-yl)piperazin-2-yl)acetamide] | 2.73 | > 20 |
| C=CC(=O)N1CCN(c2cnncc2Nc2ccc(C(F)(F)F)cc2)CC1 [Example 122, 1-(4-(5-((4-(trifluoromethyl)phenyl)amino)pyridazin-4-yl)piperazin-1-yl)prop-2-en-1-one] | > 10 | 0.0068 |
| C=CC(=O)N1CC(Nc2nccnc2N2CC(c3ccc(F)cc3)C2)C1 [Example 108, 1-(3-((3-(3-(4-fluorophenyl)azetidin-1-yl)pyrazin-2-yl)amino)azetidin-1-yl)prop-2-en-1-one] | > 10 |  |
| C=CC(=O)N1CCC(c2nccn(-c3ncc(C(F)(F)F)cn3)c2=O)CC1 [Example 118, 3-(1-acryloylpiperidin-4-yl)-1-(5-(trifluoromethyl)pyrimidin-2-yl)pyrazin-2(1H)-one] | > 10 |  |

Further lines, results first:

| IC50 (NCI-H226 cells) [µM] | IC50 [1] [µM] | Structure (SMILES) |
| --- | --- | --- |
| 5.04 | 0.005 | C=CC(=O)N1CCN(c2nccnc2Nc2ccc(OCF)cc2)CC1 [Example 36, 1-(4-(3-((4-(fluoromethoxy)phenyl)amino)pyrazin-2-yl)piperazin-1-yl)prop-2-en-1-one] |
| 1.45 | 0.164 | N#C/C=C\C(=O)N1CCN(c2nccnc2Nc2ccc(C(F)(F)F)nc2)CC1 [Example 184, (Z)-4-oxo-4-(4-(3-((6-(trifluoromethyl)pyridin-3-yl)amino)pyrazin-2-yl)piperazin-1-yl)but-2-enenitrile] |
| 0.331 | 0.0067 | C=C(F)C(=O)N1CCN(c2nccnc2Nc2cnc(C(F)(F)F)c(F)c2)CC1 [Example 51, 2-fluoro-1-(4-(3-((5-fluoro-6-(trifluoromethyl)pyridin-3-yl)amino)pyrazin-2-yl)piperazin-1-yl)prop-2-en-1-one] |
| 1.85 | 0.0186 | C=C(F)C(=O)N1CC(Oc2nccnc2Nc2ccc(C(F)(F)F)nc2)C1 [Example 65, 2-fluoro-1-(3-((3-((6-(trifluoromethyl)pyridin-3-yl)amino)pyrazin-2-yl)oxy)azetidin-1-yl)prop-2-en-1-one] |
| 0.994 | 0.0127 | O=C(COC(F)(F)F)N1CCN(c2nccnc2Nc2ccc(C(F)(F)F)cc2)CC1 [Example 190, 2-(trifluoromethoxy)-1-(4-(3-((4-(trifluoromethyl)phenyl)amino)pyrazin-2-yl)piperazin-1-yl)ethan-1-one] |
| 7.03 | 3.24 | C=C(F)C(=O)N1CCC(c2ncccc2Oc2ccc(C(F)(F)F)nc2)CC1 [Example 139, 2-fluoro-1-(4-(3-((6-(trifluoromethyl)pyridin-3-yl)oxy)pyridin-2-yl)piperidin-1-yl)prop-2-en-1-one] |
| 3.76 | 0.0134 | C=CC(=O)N1CCN(c2nccnc2C(=O)N2CC3(CC(C(F)(F)F)C3)C2)CC1 [Example 101, 1-(4-(3-(6-(trifluoromethyl)-2-azaspiro[3.3]heptane-2-carbonyl)pyrazin-2-yl)piperazin-1-yl)prop-2-en-1-one] |
| 5 | 0.0198 | C=CC(=O)N1CCC(n2nc(C(=O)c3ccc(C(F)(F)F)cc3)cc2C)CC1 [Example 165, 1-(4-(5-methyl-3-(4-(trifluoromethyl)benzoyl)-1H-pyrazol-1-yl)piperidin-1-yl)prop-2-en-1-one] |
| > 20 | 0.203 | C#CCN(CCOc1nccnc1Nc1ccc(C(F)(F)F)cc1)C(=O)C=C [Example 193, N-(prop-2-yn-1-yl)-N-(2-((3-((4-(trifluoromethyl)phenyl)amino)pyrazin-2-yl)oxy)ethyl)acrylamide] |
| 0.145 | 0.0165 | C=C(F)C(=O)N1CC=C(c2nccnc2Nc2ccc(C(F)(F)F)nc2)CC1 [Example 56, 2-fluoro-1-(4-(3-((6-(trifluoromethyl)pyridin-3-yl)amino)pyrazin-2-yl)-3,6-dihydropyridin-1(2H)-yl)prop-2-en-1-one] |
| 7.41 | 36.6 | C=C(COC(C)=O)C(=O)N1CCN(c2nccnc2Nc2ccc(C(F)(F)F)cc2)CC1 [Example 187, 2-(4-(3-((4-(trifluoromethyl)phenyl)amino)pyrazin-2-yl)piperazine-1-carbonyl)allyl acetate] |
| 66.8 |  | C=C(F)C(=O)N1CCC(c2cncnc2Oc2ccc(C(F)(F)F)nc2)CC1 [Example 127, 2-fluoro-1-(4-(4-((6-(trifluoromethyl)pyridin-3-yl)oxy)pyrimidin-5-yl)piperidin-1-yl)prop-2-en-1-one] |
| 23.9 | 0.008 | C=CC(=O)N[C@H]1C[C@H](Nc2nccnc2Nc2ccc(C(F)(F)F)cc2)C1 [Example 4, N-((1r,3r)-3-((3-((4-(trifluoromethyl)phenyl)amino)pyrazin-2-yl)amino)cyclobutyl) acrylamide] |
| 0.022 |  | C=CC(=O)N1CCC(c2ncc(C)nc2Oc2ccc(C(F)(F)F)nc2)CC1 [Example 116, 1-(4-(5-methyl-3-((6-(trifluoromethyl)pyridin-3-yl)oxy)pyrazin-2-yl)piperidin-1-yl)prop-2-en-1-one] |
| > 10 |  | C=C(F)C(=O)N1CC(Nc2nccnc2N2CC(c3ccc(F)cc3)C2)C1 [Example 109, 2-fluoro-1-(3-((3-(3-(4-fluorophenyl)azetidin-1-yl)pyrazin-2-yl)amino)azetidin-1-yl)prop-2-en-1-one] |
